Where two headings read alike, the source gives them in different places.
Legend:
in vitro = conditions: human
Method: Digoxin, fenoterol, and propranol were used as standards respectively. Transport Method:
The transport buffer used in the study was HBSS with 10 mM HEPES at pH 7.40±0.05. Compounds were tested at 2 μM bi-directionally in duplicates. Digoxin was tested at […] bi-directionally in a duplicate, while fenoterol and propranolol were tested at 2 μM in A(apical) to B (basolateral) direction in duplicates. The final DMSO concentration was adjusted to less than 1%. The plate was incubated for 2 hours in a CO2 incubator at 37±1° C., with 5% CO2 at saturated humidity without shaking. All samples, after mixing with acetonitrile containing internal standard, were centrifuged at 4000 rpm for 20 min. Subsequently,100 μL supernatant solution was diluted with 100 μL distilled water for LC/MS/MS analysis. Concentrations of test and control compounds in starting solution, donor solution, and receiver solution were quantified by LC/MS/MS methodologies, using peak area ratio of analyte/internal standard. After transport assay, lucifer yellow rejection assay was applied to determine the Caco-2 cell monolayer integrity.
Data analysis: The apparent permeability coefficient Papp (cm/s) was calculated using the equation:
The efflux ratio was calculated using the equation: Efflux ratio=Papp(BA)/Papp(AB)
Percent recovery was calculated using the equation: % Recovery=100×[(Vr·Cr)+(Vd·Cd)]/(Vd·C0) Where Vd is the volume in the donor chambers (0.075 mL on the apical side, 0.25 mL on the basolateral side); Cd and Cr are the final concentrations of transport compound in donor and receiver chambers, respectively.

[1] = target: elastase in CF patient sputum (Homo sapiens (Human), UniProt P08246); assay: Elastase inhibition assay in CF patient sputum; assay type: biochemical; conditions: for IC50 / LipE: CF sputum; for inhibitory activity in patient sputum versus purified HNE (in words): sputum samples of CF and COPD patients
Method: (§1) Serially diluted compounds in DMSO were dispensed into a 384-well black opaque plate by Echo dispenser. 0.1 μg/mL human neutrophil elastase (EPC, Catalog# SE563, Owensville, Ms.) or human sputum diluted with assay buffer (100 mM HEPES, 500 mM NaCl, 0.02% Tween 20) was added into the 384-well plate, and was incubated with different compounds at different concentrations for 30 minutes at room temperature. The final concentration of DMSO in the reaction was 0.1%. Elastase substrate MeOSuc-AAPV-AMC (Bachem, Catalog #I-1270, Torrance, CA) of 100 μM final concentration was then added into the reaction system just before enzyme kinetics were read on PheraSTAR plate reader at excitation of 380 nm and emission of 460 nm with a 3-minutes interval for 30 minutes in total. Slope of fluorescence intensity vs. time representing the Vmax of enzyme activity was calculated with MARS software. % relative inhibition was calculated as: […]
(§2) IC50 was calculated based on the % relative inhibition curve using log(agonist) vs. response (three parameters) method with Prism software. All experiments were performed in triplicate for at least three independent times.
(§3) Human sputum was purchased from Discovery Life Sciences (Los Osos, CA). Human sputum was diluted 1:10 in volume with assay buffer (100 mM HEPES, 500 mM NaCl, 0.02% Tween 20) followed by vigorous vortexing. The 1:10 diluted human sputum was further diluted into 1:30, 1:90, 1:270, 1:810, and 1:2430. The elastase concentration was determined by elastase inhibition assay as described above. Specifically, a series of standards of human neutrophil elastase (starting at 2 μg/mL and further diluted 1:2 in volume) were prepared in the assay buffer. The samples and standards were plated in a 384-well black solid bottom plate; the substrate MeOSuc-AAPV-AMC of 100 μM final concentration was then added into the reaction system just before enzyme kinetics were read on PheraSTAR plate reader as mentioned above. The slope of enzymatic kinetic reading was calculated by MARS software. The elastase levels of the human sputum were calculated based on the standard curve.

[2] = target: T1, human neutrophil elastase (Homo sapiens (Human), UniProt P08246); assay: Time dependence of elastase inhibition; assay type: biochemical
Method: The procedure for the elastase inhibition assay was followed with slight modifications. 0.1 μg/mL human neutrophil elastase was incubated with a range of concentrations of inhibitors for 5, 15, 30 and 60 minutes before substrate MeOSuc-AAPV-AMC of 100 μM final concentration was added. Enzyme kinetics were read on PheraSTAR plate reader and IC50 was calculated with the method described above.

[3] = target: T1, human neutrophil elastase; assay: Elastase inhibition assay, purified human neutrophil elastase; assay type: biochemical; conditions: for LipE: Purified NHE; for IC50: purified HNE, read-out: IC50
Method: as §1, with “Elastase substrate MeOSuc-AAPV-AMC (Bachem, Catalog #I-1270, Torrance, CA) of 100 μM final concentration was then added into the reaction system just before enzyme kinetics were read on PheraSTAR plate reader at excitation of 380 nm and emission of 460 nm with a 3-minutes interval for 30 minutes in total.” left out
as §2

[4] = target: elastase in COPD patient sputum (Homo sapiens (Human), UniProt P08246); assay: Elastase inhibition assay in COPD patient sputum; assay type: biochemical
Method: as §1, §2, §3

[5] = 5 min incubation with inhibitor
[6] = 15 min incubation with inhibitor
[7] = 30 min incubation with inhibitor
[8] = 60 min incubation with inhibitor

Sequence of elastase in COPD patient sputum (P08246 30-267): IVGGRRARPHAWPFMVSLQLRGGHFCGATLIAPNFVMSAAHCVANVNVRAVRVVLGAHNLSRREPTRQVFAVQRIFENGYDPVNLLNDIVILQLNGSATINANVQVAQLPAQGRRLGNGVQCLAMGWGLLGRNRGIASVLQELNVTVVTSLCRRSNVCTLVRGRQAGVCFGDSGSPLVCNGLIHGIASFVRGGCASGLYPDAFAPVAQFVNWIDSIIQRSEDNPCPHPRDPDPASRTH
Sequence of elastase in CF patient sputum (P08246 30-267): as above
T1 sequence (P08246 30-247): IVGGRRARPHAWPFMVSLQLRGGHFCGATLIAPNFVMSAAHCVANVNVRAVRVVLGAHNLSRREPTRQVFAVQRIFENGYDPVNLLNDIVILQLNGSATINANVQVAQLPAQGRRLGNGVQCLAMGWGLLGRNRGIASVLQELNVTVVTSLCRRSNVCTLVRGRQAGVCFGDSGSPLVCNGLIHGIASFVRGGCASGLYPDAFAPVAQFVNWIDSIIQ

**Q.** What does the source list for CC(C)[C@H](NC(=O)[C@@H]1CCCN1C(=O)[C@@H](NC(=O)c1ccc(C(=O)NS(=O)(=O)c2ccc(Cl)cc2)cc1)C(C)C)B(O)O [Compound 51, (1-((S)-1-((4-(((4-chlorophenyl)sulfonyl)carbamoyl)benzoyl)-L-valyl)pyrrolidine-2-carboxamido)-2-methylpropyl)boronic acid]?
**A.** Papp A→B at 120 min, 2 μM (in vitro; Caco-2, pH 7.4): < 0.16 ×10⁻⁶ cm/s; Papp A→B at 2 h, 2 μM (in vitro; Caco-2, pH 7.4): < 0.08 ×10⁻⁶ cm/s; Papp B→A at 120 min, 2 μM (in vitro; Caco-2, pH 7.4): 0.61 ×10⁻⁶ cm/s; Papp B→A at 2 h, 2 μM (in vitro; Caco-2, pH 7.4): < 0.12 ×10⁻⁶ cm/s; efflux ratio at 2 h, 2 μM (in vitro; Caco-2, pH 7.4): > 3.91; recovery at 2 h, 2 μM (in vitro; Caco-2, pH 7.4, Mean Recovery % A to B): < 88.2%; recovery at 2 h, 2 μM (in vitro; Caco-2, pH 7.4, Mean Recovery % B to A): 99.1%; IC50 [1]: 0.096 ± 0.002 nM; LipE [1]: 6.83; inhibitory activity in patient sputum versus purified HNE (in words) [1]: retained much of their inhibitory activities; IC50 [2, 5]: 0.027 nM; IC50 [2, 6]: 0.03 nM; IC50 [2, 7]: 0.037 nM; IC50 [2, 8]: 0.026 nM; inhibitory activity against HNE (in words) [3]: substantially enhanced potency; LipE [3]: 7.33; inhibitory activity against HNE (in words) ([3]; listed as mCBK 320): highly potent; IC50 [3]: 0.03 nM; IC50 [4]: 0.0223 ± 0.0006 nM; LipE [4]: 7.46

**Q.** What does the source list for CC(C)[C@H](NC(=O)[C@@H]1CCCN1C(=O)[C@@H](NC(=O)c1ccc(C(=O)NCC(=O)O)cc1)C(C)C)B(O)O [Compound 52, (4-(((2S)-1-((2S)-2-((1-borono-2-methylpropyl)carbamoyl)pyrrolidin-1-yl)-3-methyl-1-oxobutan-2-yl)carbamoyl)benzoyl)glycine]?
**A.** IC50 [1]: 0.043 ± 0.002 nM; LipE [1]: 9.62; inhibitory activity in patient sputum versus purified HNE (in words) [1]: retained much of their inhibitory activities; IC50 [2, 5]: 0.004 nM; IC50 [2, 6]: 0.0047 nM; IC50 [2, 7]: 0.0042 nM; IC50 [2, 8]: 0.0042 nM; change of IC50 with increasing incubation times (in words) ([2]; between 5-60 minutes): remain unchanged; LipE [3]: 10.1; IC50 [3]: 0.015 nM; IC50 [4]: 0.0127 ± 0.0008 nM; LipE [4]: 10.2

From patent US12415819B2, “Cu- and Ni-catalyzed decarboxylative borylation reactions” (The Scripps Research Institute, priority 2017, dated 2025)
